The text below walks through data of US20110301146A1 (ONCOTHERAPY SCIENCE, INC., priority 2008, published 2011).

The target in the experiment is T1, GSK-3beta (Homo sapiens, UniProt P49841).
T1 construct: purchased Invitrogen
T1 sequence (P49841 whole entry): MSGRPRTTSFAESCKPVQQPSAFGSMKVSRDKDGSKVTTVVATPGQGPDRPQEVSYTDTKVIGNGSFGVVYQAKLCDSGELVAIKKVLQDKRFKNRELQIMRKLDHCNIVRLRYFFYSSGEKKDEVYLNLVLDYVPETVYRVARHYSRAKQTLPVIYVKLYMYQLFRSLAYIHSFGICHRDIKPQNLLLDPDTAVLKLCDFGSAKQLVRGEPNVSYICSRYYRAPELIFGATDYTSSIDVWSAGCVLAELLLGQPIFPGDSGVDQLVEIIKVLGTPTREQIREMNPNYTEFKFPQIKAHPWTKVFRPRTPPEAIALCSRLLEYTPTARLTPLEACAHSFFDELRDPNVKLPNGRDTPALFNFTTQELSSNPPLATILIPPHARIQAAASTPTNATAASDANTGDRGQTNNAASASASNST
Kind of experiment: Z'-LYTE kinase assay (FRET, SER/THR 9 peptide). The class given is biochemical. Conditions: 0.04 ng/micro-l GSK-3beta (Invitrogen), 2 micro-M SER/THR 9 peptide, 15 micro-M ATP, 1 hour at room temperature, 1% DMSO. The procedure:
The Z′-LYTE kinase assay kit employs a fluorescence resonance energy transfer (FRET) between two fluorophores, coumarin and fluorescein, attached to each end of a substrate peptide.
For 0% phosphorylation control, ATP was omitted from the reaction mixture. For 100% phosphorylation control, SER/THR 9 phosphopeptide was used in place of the SER/THR 9 peptide. Following 1 hour incubation at room temperature, the reaction was stopped by the addition of half assay volume of development solution and further incubated for 1 hour at room temperature. […] The extent of phosphorylation was determined according to the 0% and 100% phosphorylation control samples using the following equation: […]
IC50 values were calculated by nonlinear four parameter fit using SigmaPlot, version 10.0 (Systat Software, Inc.).
On to `O=C(NCC1CCCCN1)c1ccc(O)c2[nH]c(-c3cccs3)nc12` (stereo not shown) [Example 45, 7-Hydroxy-N-(piperidin-2-ylmethyl)-2-(thiophen-2-yl)-1H-benzo[d]imidazole-4-carboxamide], for which the IC50 (as a rule, the concentration that inhibits the measured activity by half) turned out to be 240 nM. The same measure for `O=C(NCC1CCCNC1)c1ccc(O)c2[nH]c(-c3cccs3)nc12` (stereo not shown) [Example 39, 7-Hydroxy-N-(piperidin-3-ylmethyl)-2-(thiophen-2-yl)-1H-benzo[d]imidazole-4-carboxamide]: 8.6 nM; for `O=C(NC1CCNC1)c1ccc(O)c2[nH]c(-c3cccs3)nc12` (stereo not shown) [Example 44, 7-Hydroxy-N-(pyrrolidin-3-yl)-2-(thiophen-2-yl)-1H-benzo[d]imidazole-4-carboxamide]: 110 nM; for `O=C(N[C@H]1CCCNC1)c1ccc(O)c2[nH]c(C3CC4CCC3C4)nc12` (stereo partly drawn) [Example 52, 2-(Bicyclo[2.2.1]heptan-2-yl)-7-hydroxy-N-((S)-piperidin-3-yl)-1H-benzo[d]imidazole-4-carboxamide]: 150 nM. Consider `O=C(c1ccc(O)c2[nH]c(-c3cccs3)nc12)N1CCNCC1` [Example 21, (7-hydroxy-2-[thiophen-2-yl]-1H-benzo[d]imidazol-4-yl)(piperazin-1-yl)methanone], for which the IC50 is 22000 nM. `O=C(NCC1CCCCN1)c1ccc(O)c2[nH]c(-c3ccccc3)nc12` (stereo not shown) [Example 18, 4-Hydroxy-2-phenyl-N-(piperidin-2-ylmethyl)-1H-benzo[d]imidazole-7-carboxamide] registered an IC50 of 1500 nM. With `O=C(NCC1CCCCN1)c1ccc(O)c2[nH]c(C3CC3)nc12` (stereo not shown) [Example 7, 2-Cyclopropyl-4-hydroxy-N-(piperidin-2-ylmethyl)-1H-benzo[d]imidazole-7-carboxamide] the figure was 100 nM; with `O=C(NC[C@@H]1CCCNC1)c1ccc(O)c2[nH]c(Cc3cccs3)nc12` [Example 58, (R)-7-hydroxy-N-(piperidin-3-ylmethyl)-2-(thiophen-2-ylmethyl)-1H-benzo[d]imidazole-4-carboxamide], 100 nM. With `CC(C)(C)OC(=O)N1CCC[C@H](NC(=O)c2ccc(O)c3[nH]c(-c4ccc(Br)s4)nc23)C1` [Example 50, (S)-tert-Butyl 3-(2-(5-bromothiophen-2-yl)-7-hydroxy-1H-benzo[d]imidazole-4-carboxamido)piperidine-1-carboxylate] the figure was 3400 nM. The same measure for `O=C(NCC1CCCNC1)c1ccc(O)c2[nH]c(C3CC3)nc12` (stereo not shown) [Example 6, 2-Cyclopropyl-4-hydroxy-N-(piperidin-3-yl-methyl)-1H-benzo[d]imidazole-7-carboxamide]: 1600 nM. Take `O=C(NCCN1CCNCC1)c1ccc(O)c2[nH]c(-c3cccs3)nc12` [Example 36, 7-Hydroxy-N-[2-(piperazin-1-yl)ethyl]-2-(thiophen-2-yl)-1H-benzo[d]imidazole-4-carboxamide]: the IC50 worked out at 210 nM. In turn, `O=C(NC1CCCNC1)c1ccc(O)c2[nH]c(C3CC3)nc12` (stereo not shown) [Example 11, 2-cyclopropyl-4-hydroxy-N-(piperidin-3-yl)-1H-benzo[d]imidazole-7-carboxamide] had an IC50 of 190 nM. Regarding `O=C(NC1CCC(C(=O)O)CC1)c1ccc(O)c2[nH]c(-c3cccs3)nc12` (stereo not shown) [Example 72, 4-[7-hydroxy-2-(thiophen-2-yl)-1H-benzo[d]imidazole-4-carboxamido]cyclohexanecarboxylic Acid], half-maximal inhibition (IC50) required 12 nM.
